Here are results for seven compounds from patent US10953027B2, “Active agents and methods of their use for the treatment of metabolic disorders and nonalcoholic fatty liver disease” (Flagship Pioneering Innovations V, Inc., priority 2018, dated 2021).

For one series, the system named is naïve CD4+ T cells. The series can be described thus: Human regulatory T cell differentiation assay. The series is classed as cell-based. The note with it: 3 mM, 6 days. How it is done:
Peripheral blood mononuclear cells (PBMCs) from whole blood donated by health volunteers were separated by Ficoll-Paque gradient centrifugation and naïve CD4^+ T cells were subsequently isolated using magnet beads (EasySep™ Human Naïve CD4^+ T Cell Isolation Kit, Cambridge, Mass.). For regulatory T cell (Treg) differentiation assay, naïve CD4^+ T cells were cultured (1-10×10^4 cells) in CTS OpTmizer medium for 6 days and stimulated with 5 ng/ml TGF-β, 100 U/ml IL-2, and ImmunoCult™ Human […] T Cell Activator; Stemcell #10990) with/without our Compounds. Cell viability was determined using a viability dye (eBioscience Fixable Viability Dye eFluor 780: ThermoFisher 65-0865-14) at 1:500 dilution. The cells were gated for Treg, defined as Live, CD11c^−, CD14^−, CD19^−, CD8^−, CD4^+, CD3^+, CD25^+, FOXP3^+. Percent (%) Tregs were calculated as percentage of CD4^+, CD25^+, FOXP3^+ cells over total CD4^+ T cells. Statistical analysis was performed with GraphPad Prism Software Using One-Way ANOVA.

The test system of another series is C57BL/6 DIO mice. The series can be described thus: DIO animal model of NAFLD/NASH in young mice (Example 16). Further details: OGTT: unit not given beside the values. Format: in vivo. The settings on record: for % Weight change: 12 weeks; for OGTT: Day 82, 2 g/kg glucose PO; for % Difference compared to ctrl: weight change vs HFD ctrl. From the text:
Species (number, sex, age/weight): C57BL/6 DIO mice (120+10 spares, male, ˜18 weeks of age) from Jackson Laboratories, Stock #380050. Note: 18 week old DIO mice sent sent with a minimum body weight of 39 grams. Spare animals may be used to replace study animals, as required, euthanized after completion of dose administration or transferred to Testing Facility Docket 07-12.
Cage Side Observations (Animal Health Checks): Cage side animal's health checks will be performed at least once daily to check for general health, mortality and moribundity. Clinical Observations: Clinical observations will be performed per exception. Body Weights: Body weights for all animals will be recorded prior to Day 1 and at least twice weekly thereafter, including prior to necropsy ([…]).
Dose Administration: Dosing for Groups 3-8 will be provided ad libitum in the diet. Dosing for Groups 9 (Saline) and 10 (Semaglutide at 123.4 μg/kg) in a 5 mL/kg volume, will begin on Day 1, and be performed 3 times weekly for 12 weeks by SC administration. Residual Test Article: All residual high fat diets will be frozen at nominally −20° C., and at the end of the study, several pellets of the diets for groups 2-9 (in 50-ml conical tubes) will be shipped to Sponsor, and the rest will be discarded. Residual control diets (group 1) will be stored ambient, and at the end of the study, several pellets in a 50 mL conical tube will be shipped to Sponsor and the rest is discarded. Residual test material for Group 10 will be stored at nominally −70° C., and at the end of the study, an aliquot of test material will be shipped to Sponsor, and the rest will be discarded.
Oral Glucose Tolerance Test (oGTT) On Day 82 (+/−2 days) an oGTT will be performed. Following an approximate 4 hour fast, 2 g/kg glucose (50% Dextrose diluted in sterile water for injection to a concentration of 0.4 g/mL) will be administered at 5 mL/kg via oral gavage (PO). Blood will be collected pre-glucose challenge (t=0) and at t=15, 30, 60, 90, and 120 minutes following the glucose challenge. Whole blood glucose levels will be evaluated at all time points using a handheld glucometer and will be reported in the Data Submission. This will be scheduled on a Tuesday or Thursday to avoid Group 9/10 dosing days.
Oral Glucose Tolerance Test (oGTT) On Day 82 (+/−2 days) an oGTT will be performed. Following an approximate 4 hour fast, 2 g/kg glucose (50% Dextrose diluted in sterile water for injection to a concentration of 0.4 g/mL) will be administered at 5 mL/kg via oral gavage (PO). Blood will be collected pre-glucose challenge (t=0) and at t=15, 30, 60, 90, and 120 minutes following the glucose challenge. Whole blood glucose levels will be evaluated at all time points using a handheld glucometer and will be reported in the Data Submission.

Another series has as its system Male DIO mice. The series can be described thus: In vivo evaluation for glucose disposal and lipidemia in DIO mice (Example 11). The note with it: for Fasting blood glucose levels (time 0 from OGTT): 28 days, 16 hour fast; for glucose AUC (0-120 min): OGTT day 28, glucose 2.0 g/kg PO. On the procedure: The DIO mice were prepared by feeding male C57BL/6 mice a high fat diet (HFD, Research Diets D12492) from 6-14 weeks of age. DIO mice were housed individually and maintained on the HFD through the duration of study. A twelve-hour light cycle was maintained with room temperature maintained at 22-25° C. All of the mice were acclimated to the facility for 5 days prior to starting the study.
Following 5 days of facility acclimation, DIO mice were randomized into 8 groups of 10 based on body weight and blood glucose for assignment to treatment, as shown in Table 9:
All treatments were administered admixed in HFD (Research Diets, New Brunswick N.J.) and were provided ad libitum for 30 days. Drinking water for group 7 was supplemented with 1, 3 Butanediol at 3% concentration.
Body weight was recorded at baseline and twice weekly thereafter. Feed and water intakes were recorded each Monday, Wednesday, and Friday.
Blood samples (<3 μL) were obtained one hour post dose by tail clip at baseline and weekly thereafter for measurement of fed blood glucose by StatStrip. Additional anti-coagulated blood samples (100 μl, EDTA di-potassium salt) were obtained by tail clip one hour post-dose at baseline, day 14 and day 30. Anti-coagulated samples were quick frozen and stored on dry ice.
Animals were subjected to a 16 hour fast for performance of an oral glucose tolerance test (OGTT) on day 28. Blood samples were obtained via tail clip just prior to (8 am) and 15, 30, 60, 90, and 120 minutes post-glucose load (2.0 g/kg, PO) for assay of whole blood glucose (StatStrip). Feed was returned following last sample.
Animals were terminated on day 30-31 using CO2 inhalation and induction of pneumothorax. Terminal blood samples were obtained by cardiac puncture. Whole blood was processed to serum and analyzed for serum cholesterol, triglycerides, high density lipoprotein (HDL), low density lipoprotein (LDL) and non-esterified fatty acids (NEFA) using AU480 clinical analyzer.
Organ weights (liver, spleen, subcutaneous fat, inguinal fat, abdominal fat, and epididymal fat) were recorded. Sections of each fat were frozen or fixed in 4% paraformaldehyde/PBS, pH 6.9; Fat samples were placed on dry ice. Fixed liver samples (4% paraformaldehyde) were sent to Premier Laboratories for H&E staining and scoring for steatosis, inflammation and fibrosis. Spleen samples were prepared in ice cold 5% bovine serum albumin (BSA) in PBS or 4% paraformaldehyde. Sections of brain, heart, lung, and small and large intestine were fixed in 10% formalin.
All data are represented as group mean±SEM. Data were analyzed using JMP (SAS software). All normalizations were calculated using terminal body weight.
Baseline differences among groups were identified using Tukey-Kramer Hsd<0.05. Treatment effects compared to control were determined using Oneway ANOVA (*, p<0.05) followed by Dunnett's test where appropriate.

Series [1] is described as follows: Assay 1. Stability in Simulated Gastric Fluid (SGF). The series is classed as in vitro ADME. The note with it: 1 μM, 37° C., SGF pH 1.6 with pepsin. The method, boiled down: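 Acylated compounds at a final 1 μM (diluted from 1 mM DMSO stock) were incubated at 37 °C in SGF of pH 1.6 NaCl buffer with FaSSIF powder and 0.1 mg/mL pepsin. Aliquots were quenched with acetonitrile at T0 and regular intervals, and degradation rates were determined by LC/MS.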

Series [2] can be described thus: Assay 2. Stability in Simulated Intestinal Fluid (SIF). The series is classed as in vitro ADME. The settings on record: 1 μM, 37° C., SIF pH 6.7 with pancreatin. The gist of the method:
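Acylated compounds at 1 μM (from 1 mM DMSO stock) in fresh SIF: FaSSIF with pancreatin in pH 6.7 phosphate buffer, agitated at 37 °C. Aliquots from T0 onward quenched with 1 volume acetonitrile; LC/MS gives degradation rates.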

The test system of the next series is Mouse 3T3-L1 cells. The series can be described thus: Mouse adipocyte lipolysis assay. Format: cell-based. The note with it: Mus musculus, 3T3-L1; 3 mM, 24 hours; read-out: Lipolysis Free Fatty Acids % DMSO. On the procedure:
Once the cells became confluent, they were seeded into a tissue culture treated 96 well plate. […] After 14 days of differentiation, cells were treated with compounds of interest. After 24 hours post-treatment, the cell viability was assessed using CellTiter-Glo Luminescent Cell Viability Assay from Promega, and lipolysis was determined using Lipolysis Assay Kit from ZenBio.

The test system of a further series is Mouse myocyte. The series can be described thus: Mouse myocyte lipolysis assay. The series is classed as cell-based. The settings on record: Mus musculus; 3 mM; read-out: Free glycerol % DMSO. On the procedure: Cells were obtained from ATCC and cultured in Dulbecco's Modified Eagle's medium (DMEM) containing 20% fetal bovine serum and 1% penicillin/streptomycin at 37° C. in an incubator with 5% CO2. Once the cells became confluent, they were seeded into a tissue culture treated 96 well plate. The next day, the medium containing DMEM with 2% equine serum was used to start differentiation. Once cells were fully differentiated, they were treated with indicated compounds.

Where only a bound is given, the exact number is not on record here.

In the case of `CCCC(=O)O` [Butyric Acid], the “Cell viability % DMSO” value in the series on naïve CD4+ T cells is “− (<90%: −)”. The activity at 3000 µM in the series on naïve CD4+ T cells (Homo sapiens, CD4+ T, 144 h, read-out: Treg induction % DMSO) is less than 90%.
In the case of `CCCC(=O)O[C@H]1OC[C@H](OC(=O)CCC)[C@H](OC(=O)CCC)[C@H]1OC(=O)CCC` [Compound 184, (2R,3R,4S,5S)-3,4,5-tris(butanoyloxy)oxan-2-yl Butanoate], in the series with C57BL/6 DIO mice (ad libitum in HFD), the “% Weight change” value turned out to be 11% and the “% Difference compared to ctrl” value is recorded as −12%. Also, in the series on C57BL/6 DIO mice (ad libitum in HFD, ctrl HFD), the OGTT was found to be 27257 and the “% HbA1c” value came to 5.96%.
As for `O=C(CCCc1ccccc1)Oc1cc(OC(=O)CCCc2ccccc2)c2c(c1)O[C@H](c1cc(OC(=O)CCCc3ccccc3)c(OC(=O)CCCc3ccccc3)c(OC(=O)CCCc3ccccc3)c1)[C@H](OC(=O)c1cc(OC(=O)CCCc3ccccc3)c(OC(=O)CCCc3ccccc3)c(OC(=O)CCCc3ccccc3)c1)C2` [Compound 5, [(2R,3R)-5,7-bis(4-phenylbutanoyloxy)-2-[3,4,5-tris(4-phenylbutanoyloxy)phenyl]chroman-3-yl] 3,4,5-tris(4-phenylbutanoyloxy)benzoate], the “Fasting blood glucose levels (time 0 from OGTT)” value in the series with Male DIO mice (0.6% in HFD) stood at 107.3 ± 5.3 mg/dL; in the series with Male DIO mice (2% in HFD) it was 104.7 ± 4.3 mg/dL; with Male DIO mice (6% in HFD) it was 95.1 ± 4.4 mg/dL. Also, the “glucose AUC (0-120 min)” value turned out to be 29628.0 ± 1791.7 mg/dL/min with Male DIO mice (0.6% in HFD), 27648.8 ± 866.3 mg/dL/min with Male DIO mice (2% in HFD) and 26049.0 ± 455.4 mg/dL/min in the series on Male DIO mice (6% in HFD).
As for `CCCC(=O)Oc1cc(OC(=O)CCC)c2c(=O)c(OC(=O)CCC)c(-c3ccc(OC(=O)CCC)c(OC(=O)CCC)c3)oc2c1` [Compound 15, [2-butanoyloxy-4-[3,5,7-tri(butanoyloxy)-4-oxo-chromen-2-yl]phenyl] butanoate], the “Assay 1 (SGF) (% Remaining @ 1 hours)” value in series [1] is “C (C: >75% of the tested compound remaining)”. Further, the “Assay 2 (SIF) (% @ Remaining 4 hours)” value in series [2] is on record as “B (B: 25-75% of the tested compound remaining)”. In the series on C57BL/6 DIO mice (ad libitum in HFD), the “% Weight change” value came to 23% and the “% Difference compared to ctrl” value worked out at 0%. Further, in the series with C57BL/6 DIO mice (ad libitum in HFD, ctrl HFD), the OGTT is 32722 and the “% HbA1c” value was determined as 6.50%.
On to `CCCC(=O)O` [Butyric acid], for which the activity at 3000 µM is 50 to 70% in the series on Mouse 3T3-L1 cells and less than 50% in the series on Mouse myocyte.
In the case of `CCCC(=O)OCC[C@@H](C)OC(=O)Oc1ccc(/C=C/c2cc(OC(=O)O[C@H](C)CCOC(=O)CCC)cc(OC(=O)O[C@H](C)CCOC(=O)CCC)c2)cc1` [Compound 78, (3R,3′R)-((((5-((E)-4-(((((R)-4-(butyryloxy)butan-2-yl)oxy)carbonyl)oxy)styryl)-1,3-phenylene)bis(oxy))bis(carbonyl))bis(oxy))bis(butane-3,1-diyl) dibutyrate], the “Assay 1 (SGF) (% Remaining @ 1 hours)” value in series [1] is reported as “C (C: >75% of the tested compound remaining)”. In addition, the “Assay 2 (SIF) (% @ Remaining 4 hours)” value in series [2] is on record as “A (A: <25% of the tested compound remaining)”. Moreover, in the series on C57BL/6 DIO mice (ad libitum in HFD), the “% Weight change” value worked out at 21% and the “% Difference compared to ctrl” value is recorded as −2%. In the series on C57BL/6 DIO mice (ad libitum in HFD, ctrl HFD), the OGTT stood at 29944 and the “% HbA1c” value came out at 6.14%.
For the compound Semaglutide [reference compound], in the series on C57BL/6 DIO mice (123.4 μg/kg SC 3 times weekly for 12 weeks, ctrl Saline), the “% HbA1c” value was 7.90%. Also, in the series on C57BL/6 DIO mice (123.4 μg/kg SC 3 times weekly, ctrl Saline), the OGTT came to 18214.
